From paper PMC8087159 (Bioconjugate chemistry, 2021)
“Also recorded” adds a separate entry of the source. Like-named read-outs stand apart in the source and are kept apart here.

Legend:
RPE65 [1] = molecular target: RPE65 (Bos taurus, UniProt Q28175); assay: RPE microsome retinoid isomerase assay; assay type: biochemical, Bovine; conditions: RPE microsomes, 0.5–10 μM compound, 10 μM all-trans-retinol, 1 h
[2] = system: retinal function of C57BL/6J WT mice; assay: ERG scotopic a-waves in wild-type mice after drug treatment; assay type: in vivo; conditions: 1.75 μmol per mouse gastric gavage 16 h prior to ERG
[3] = system: light-induced retinal degeneration in Abca4^−/−Rdh8^−/− mice; assay: Retinal histology; assay type: in vivo; conditions: drug before intense light exposure; 7 days after light exposure
ARPE19 cells = assay: ARPE19 cell uptake; assay type: in vitro ADME, human; conditions: 10 μM, 16 h; compared with Ret-NH2
RPE65 [4] = molecular target: T1, RPE65 (Mus musculus, UniProt Q91ZQ5); assay: In vivo RPE65 inhibition; conditions: 1.75 μmol/mouse oral gavage 16 h before bleach 10 min at 7000 lx; 24 h in the dark
T1 sequence (Q91ZQ5 2-533): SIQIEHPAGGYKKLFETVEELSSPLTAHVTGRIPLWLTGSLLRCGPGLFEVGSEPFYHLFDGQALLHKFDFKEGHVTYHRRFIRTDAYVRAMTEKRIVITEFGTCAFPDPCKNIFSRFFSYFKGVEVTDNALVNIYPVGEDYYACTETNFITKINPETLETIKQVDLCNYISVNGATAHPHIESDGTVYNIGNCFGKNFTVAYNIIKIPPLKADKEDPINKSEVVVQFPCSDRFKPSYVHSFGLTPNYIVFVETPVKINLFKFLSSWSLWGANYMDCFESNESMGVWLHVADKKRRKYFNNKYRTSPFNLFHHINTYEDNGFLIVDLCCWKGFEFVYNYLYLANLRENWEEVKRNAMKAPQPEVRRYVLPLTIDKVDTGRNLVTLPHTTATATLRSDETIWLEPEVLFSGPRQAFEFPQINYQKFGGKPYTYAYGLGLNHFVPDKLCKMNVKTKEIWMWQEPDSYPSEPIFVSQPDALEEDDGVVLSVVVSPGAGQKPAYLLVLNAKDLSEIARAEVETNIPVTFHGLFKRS

Caco-2 cell monolayer = Caco-2 cell monolayer transport; assay type: in vitro ADME, human; conditions: 500 μM in PBS pH 6 on apical side, 37 °C, within 24 h; compared with Ret-NH2
[5] = 3.5 μmol per mouse oral gavage; for liver accumulation of N-retinylamides / original drug in the eye: 2 and 16 h; for N-retinylamides in the eye: 16 h
RPE65 [6] = molecular target: T2, RPE65 (Homo sapiens, UniProt Q16518); assay type: cell-based; conditions: NIH3T3 cells, 4.5 μM drug, 10 μM all-trans-retinol, 16 h
T2 sequence (Q16518 1-533): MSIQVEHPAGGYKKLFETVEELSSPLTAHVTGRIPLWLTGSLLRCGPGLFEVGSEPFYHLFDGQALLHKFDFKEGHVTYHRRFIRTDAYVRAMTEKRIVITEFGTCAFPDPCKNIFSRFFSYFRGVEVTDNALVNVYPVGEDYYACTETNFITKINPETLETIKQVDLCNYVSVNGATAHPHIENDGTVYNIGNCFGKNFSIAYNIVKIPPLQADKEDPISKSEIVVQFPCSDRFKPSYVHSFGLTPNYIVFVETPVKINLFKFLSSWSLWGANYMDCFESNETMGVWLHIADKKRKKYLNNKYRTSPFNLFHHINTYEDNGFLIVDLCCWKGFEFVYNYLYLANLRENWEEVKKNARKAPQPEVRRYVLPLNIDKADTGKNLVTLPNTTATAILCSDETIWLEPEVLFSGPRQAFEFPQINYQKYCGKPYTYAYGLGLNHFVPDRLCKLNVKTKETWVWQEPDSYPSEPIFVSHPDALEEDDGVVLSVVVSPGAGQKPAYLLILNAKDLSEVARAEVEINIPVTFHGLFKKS

Storage stability = assay type: physicochemical
[7] = cited from earlier work
[8] = system: light-induced retinal degeneration in Abca4^−/−Rdh8^−/− mice; assay: ERG scotopic a-waves after light-induced retinal degeneration; conditions: 1.9 μmol/mouse gastric gavage 16 h prior to light illumination; measured 7 days after drug administration and illumination
[9] = mouse, in vivo, po

RPE65 (Bos taurus, UniProt Q28175), sequence (Q28175 whole entry): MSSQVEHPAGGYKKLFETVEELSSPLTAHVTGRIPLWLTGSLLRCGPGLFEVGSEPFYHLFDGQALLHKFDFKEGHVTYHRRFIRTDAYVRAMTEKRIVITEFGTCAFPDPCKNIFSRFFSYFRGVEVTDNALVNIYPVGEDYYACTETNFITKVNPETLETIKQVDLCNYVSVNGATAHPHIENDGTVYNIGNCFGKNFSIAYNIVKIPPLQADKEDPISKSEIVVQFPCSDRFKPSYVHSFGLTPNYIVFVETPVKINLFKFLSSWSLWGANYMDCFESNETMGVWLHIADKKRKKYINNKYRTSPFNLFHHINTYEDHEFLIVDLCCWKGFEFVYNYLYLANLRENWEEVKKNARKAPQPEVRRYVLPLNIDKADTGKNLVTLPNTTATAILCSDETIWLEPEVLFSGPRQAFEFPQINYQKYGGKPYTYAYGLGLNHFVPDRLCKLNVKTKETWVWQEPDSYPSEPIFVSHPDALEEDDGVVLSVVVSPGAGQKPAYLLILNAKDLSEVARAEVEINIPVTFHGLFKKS

CC1=C(/C=C/C(C)=C/C=C/C(C)=C/CNC(=O)CNC(=O)[C@@H](N)C(C)C)C(C)(C)CCC1 [RVG, Ret-NH2-L-valylglycine amide]
inhibition of RPE65 activity (11-cis-retinol production) (RPE65 [1]): did not affect significant inhibition; also recorded: no inhibitory effect | recovery of retinal function (ERG) [2]: rapid recovery of retinal function | retinal structure by histology (H&E) [3]: maintained an intact retinal structure | uptake by ARPE19 cells (ARPE19 cells): higher uptake | regeneration of 11-cis-retinal in the eye (RPE65 [4]): greater regeneration of 11-cis-retinal | transport through the Caco-2 monolayer (Caco-2 cell monolayer): significantly higher transport | liver accumulation of N-retinylamides [5]: lower liver accumulations of N-retinylamides than did RF and RL | original drug in the eye [5]: detected only at 16 h | N-retinylamides in the eye [5]: no detectable N-retinylamides | 11-cis-retinol production (RPE65 [6]): easily detected | degradation on storage (Storage stability; stored in a desiccator under vacuum at room temperature for 2 months): Less than 5%

CC1=C(/C=C/C(C)=C/C=C/C(C)=C/CNC(=O)CN)C(C)(C)CCC1 [RG]
liver accumulation of N-retinylamides [5]: lower liver accumulations of N-retinylamides than did RF and RL | original drug in the eye [5]: detected in the eyes at 2 and 16 h at relatively high concentrations | N-retinylamides in the eye [5]: comparable to that of Ret-NH2

CC1=C(/C=C/C(C)=C/C=C/C(C)=C/CNC(=O)[C@@H](N)Cc2ccccc2)C(C)(C)CCC1 [RF]
inhibition of RPE65 activity (11-cis-retinol production) (RPE65 [1]): minor inhibitory effects | uptake by ARPE19 cells (ARPE19 cells): higher uptake | transport through the Caco-2 monolayer (Caco-2 cell monolayer): significantly higher transport | original drug in the eye [5]: detected only at 2 h | N-retinylamides in the eye [5]: comparable to that of Ret-NH2

CC1=C(/C=C/C(C)=C/C=C/C(C)=C/CNC(=O)[C@@H](N)CC(C)C)C(C)(C)CCC1 [RL]
original drug in the eye [5]: detected only at 2 h | N-retinylamides in the eye [5]: comparable to that of Ret-NH2

COc1ccc(OC)c(C(O)CN)c1 (stereo not drawn) [desglymidodrine]
oral bioavailability ([7]; desglymidodrine to midodrine): 50%

Nc1nc2c(ncn2COCCO)c(=O)[nH]1 [acyclovir]
oral bioavailability (Fo) ([7]; in vivo, po): ~ 16%

CC1=C(/C=C/C(C)=C/C=C/C(C)=C/CN)C(C)(C)CCC1 [Ret-NH2, Retinylamine, reference compound]
inhibition of RPE65 activity (11-cis-retinol production) (RPE65 [1]): concentration-dependent inhibition | regeneration of 11-cis-retinal in the eye (RPE65 [4]): much lower concentration of 11-cis-retinal than the untreated controls | original drug in the eye [5]: No Ret-NH2 was detected at 2 and 16 h in the eye | N-retinylamide concentration in liver ([5]; 2 h): much higher liver concentrations | 11-cis-retinol production (RPE65 [6]): virtually ablated 11-cis-retinol production | decomposed on storage (Storage stability; desiccator under vacuum at room temperature, within 1 week): 95%

Emixustat-L-Val-Gly amide [EVG]
ERG activities (scotopic a-waves) [8]: only slight decrease of ERG activities

CC1=C(/C=C/C(C)=C/C=C/C(C)=C/CNC(=O)[C@@H](N)C(C)C)C(C)(C)CCC1 [RV]
N-retinylamides in the eye [9]: no detectable N-retinylamides | liver accumulation of N-retinylamides [9]: lower liver accumulations of N-retinylamides than did RF and RL | original drug in the eye [9]: detected in the eyes at 2 and 16 h at relatively high concentrations
